This note sets out measurements from the supplement of paper PMC10920090.

The subject of assay [1] is MDA-MB-231. Description: drug sensitivity score (DSS), cell viability CellTiter-Glo; higher = more sensitive; extreme values may be limits of the assay. To be noted: 72 h. In general terms: Cellular ATP, detected with luciferase, serves as a proxy for viable cell number.
Assay [2] deals with MDA-MB-231. Description: drug sensitivity score (DSS), cytotoxicity CellTox Green; higher = more cytotoxic; extreme values may be limits of the assay. To be noted: 72 h.
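For drug sensitivity score (DSS), cytotoxicity CellTox Green in this document: DSS summarises each dose–response curve by combining IC50, EC50, maximal inhibition and efficacy across drug concentrations.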

Regarding `O=C1CN2Cc3c(ccc(Cl)c3Cl)N=C2N1` [Anagrelide], the drug sensitivity score with MDA-MB-231 [1] (shRNA: shPPFIA1_1), in the assay on MDA-MB-231 [1] (shRNA: shScramble), in the assay with MDA-MB-231 [2] (shRNA: shPPFIA1_1) and with MDA-MB-231 [2] (shRNA: shScramble) was 0 DSS in each case.

As to `CC(C)(C#N)c1cc(Cn2cncn2)cc(C(C)(C)C#N)c1` [Anastrozole], the drug sensitivity score in the assay with MDA-MB-231 [1] (shRNA: shPPFIA1_1), in the assay on MDA-MB-231 [1] (shRNA: shScramble), in the assay on MDA-MB-231 [2] (shRNA: shPPFIA1_1) and in the assay on MDA-MB-231 [2] (shRNA: shScramble) was 0 DSS in each case.

For the compound `N#CC1(c2ccc(NC(=O)c3cccnc3NCc3ccncc3)cc2)CCCC1` [Apatinib], the drug sensitivity score in the assay on MDA-MB-231 [1] (shRNA: shPPFIA1_1), with MDA-MB-231 [1] (shRNA: shScramble), with MDA-MB-231 [2] (shRNA: shPPFIA1_1) and in the assay with MDA-MB-231 [2] (shRNA: shScramble) was 0 DSS throughout.

As for `Cc1c(CN2CCN(C(=O)[C@H](C)O)CC2)sc2c(N3CCOCC3)nc(-c3cnc(N)nc3)nc12` [Apitolisib], the drug sensitivity score in the assay on MDA-MB-231 [1] (shRNA: shPPFIA1_1) is 0 DSS; in the assay with MDA-MB-231 [1] (shRNA: shScramble), 5.6 DSS; in the assay with MDA-MB-231 [2] (shRNA: shPPFIA1_1), 0 DSS; in the assay with MDA-MB-231 [2] (shRNA: shScramble) it was 0 DSS.

`CC(C)c1c(C(=O)Nc2ccccc2)c(-c2ccccc2)c(-c2ccc(F)cc2)n1CC[C@@H](O)C[C@@H](O)CC(=O)O` [Atorvastatin]: the drug sensitivity score stood at 2.5 DSS in the assay with MDA-MB-231 [1] (shRNA: shPPFIA1_1), 7.3 DSS in the assay with MDA-MB-231 [1] (shRNA: shScramble), 2 DSS in the assay on MDA-MB-231 [2] (shRNA: shPPFIA1_1) and 0.6 DSS in the assay with MDA-MB-231 [2] (shRNA: shScramble).

For `CC(=O)OC[C@H]1O[C@@H]([S-])[C@H](OC(C)=O)[C@@H](OC(C)=O)[C@@H]1OC(C)=O.CCP(CC)CC.[Au+]` [Auranofin], the drug sensitivity score worked out at 3.2 DSS in the assay with MDA-MB-231 [1] (shRNA: shPPFIA1_1), 4.2 DSS in the assay with MDA-MB-231 [1] (shRNA: shScramble), 0 DSS in the assay on MDA-MB-231 [2] (shRNA: shPPFIA1_1) and 0.4 DSS with MDA-MB-231 [2] (shRNA: shScramble).

`CNC(=O)c1ccccc1Sc1ccc2c(/C=C/c3ccccn3)n[nH]c2c1` [Axitinib]: the drug sensitivity score in the assay on MDA-MB-231 [1] (shRNA: shPPFIA1_1) stood at 0 DSS; with MDA-MB-231 [1] (shRNA: shScramble), 0.2 DSS; in the assay with MDA-MB-231 [2] (shRNA: shPPFIA1_1), 0 DSS; with MDA-MB-231 [2] (shRNA: shScramble), 0 DSS.

For `Nc1ncn([C@@H]2O[C@H](CO)[C@@H](O)[C@H]2O)c(=O)n1` [Azacitidine], the drug sensitivity score is 0 DSS in the assay with MDA-MB-231 [1] (shRNA: shPPFIA1_1), 1.1 DSS with MDA-MB-231 [1] (shRNA: shScramble), 0 DSS in the assay on MDA-MB-231 [2] (shRNA: shPPFIA1_1) and 0 DSS with MDA-MB-231 [2] (shRNA: shScramble).

`Cc1cc(-c2nc(-c3ccc(OC(F)(F)F)cc3)no2)nn1Cc1ccnc(N2CCN(C3CC3)CC2)c1` [BAY 87-2243]: the drug sensitivity score was 14.7 DSS in the assay on MDA-MB-231 [1] (shRNA: shPPFIA1_1), 13 DSS with MDA-MB-231 [1] (shRNA: shScramble), 0 DSS with MDA-MB-231 [2] (shRNA: shPPFIA1_1) and 0 DSS with MDA-MB-231 [2] (shRNA: shScramble).

Regarding `Nc1nc(Nc2ccc3c(c2)CC[C@@H](N2CCCC2)CC3)nn1-c1cc2c(nn1)-c1ccccc1CCC2` [BGB324], the drug sensitivity score in the assay on MDA-MB-231 [1] (shRNA: shPPFIA1_1) was 10.6 DSS; in the assay on MDA-MB-231 [1] (shRNA: shScramble), 9.5 DSS; in the assay with MDA-MB-231 [2] (shRNA: shPPFIA1_1), 4.4 DSS; with MDA-MB-231 [2] (shRNA: shScramble), 6.1 DSS.

As to `CC[C@@H]1C(=O)N(C)c2cnc(Nc3ccc(C(=O)NC4CCN(C)CC4)cc3OC)nc2N1C1CCCC1` [BI 2536], the drug sensitivity score in the assay with MDA-MB-231 [1] (shRNA: shPPFIA1_1) turned out to be 0 DSS; in the assay on MDA-MB-231 [1] (shRNA: shScramble), 11.3 DSS; with MDA-MB-231 [2] (shRNA: shPPFIA1_1), 0.3 DSS; in the assay on MDA-MB-231 [2] (shRNA: shScramble), 0 DSS.

As for `COc1c(C)cnc(Cn2cnc3c(Cl)nc(N)nc32)c1C` [BIIB021], the drug sensitivity score in the assay on MDA-MB-231 [1] (shRNA: shPPFIA1_1) worked out at 10.8 DSS; in the assay with MDA-MB-231 [1] (shRNA: shScramble) it was 15.9 DSS; in the assay with MDA-MB-231 [2] (shRNA: shPPFIA1_1), 3.1 DSS; in the assay on MDA-MB-231 [2] (shRNA: shScramble), 2.8 DSS.

For `O=C(Nc1cccc(Nc2ncc(Br)c(NCCc3cnc[nH]3)n2)c1)N1CCCC1` [BX-912], the drug sensitivity score in the assay on MDA-MB-231 [1] (shRNA: shPPFIA1_1) worked out at 3.5 DSS; with MDA-MB-231 [1] (shRNA: shScramble), 5.7 DSS; in the assay with MDA-MB-231 [2] (shRNA: shPPFIA1_1) it was 1.8 DSS; with MDA-MB-231 [2] (shRNA: shScramble), 3.1 DSS.

`Cc1ccc(NC(=O)c2ccc(CN3CC[C@H](N(C)C)C3)c(C(F)(F)F)c2)cc1Nc1nccc(-c2cncnc2)n1` [Bafetinib]: the drug sensitivity score in the assay with MDA-MB-231 [1] (shRNA: shPPFIA1_1) came to 0 DSS; in the assay with MDA-MB-231 [1] (shRNA: shScramble), 4.3 DSS; in the assay on MDA-MB-231 [2] (shRNA: shPPFIA1_1), 0.6 DSS; with MDA-MB-231 [2] (shRNA: shScramble), 0.5 DSS.

Take `CCS(=O)(=O)N1CC(CC#N)(n2cc(-c3ncnc4[nH]ccc34)cn2)C1` [Baricitinib]: the drug sensitivity score was determined as 0.9 DSS with MDA-MB-231 [1] (shRNA: shPPFIA1_1), 0.9 DSS in the assay on MDA-MB-231 [1] (shRNA: shScramble), 0 DSS in the assay on MDA-MB-231 [2] (shRNA: shPPFIA1_1) and 0 DSS with MDA-MB-231 [2] (shRNA: shScramble).

Consider `O=C(/C=C/c1cccc(S(=O)(=O)Nc2ccccc2)c1)NO` [Belinostat], for which the drug sensitivity score with MDA-MB-231 [1] (shRNA: shPPFIA1_1) came to 8.7 DSS; in the assay with MDA-MB-231 [1] (shRNA: shScramble), 10.2 DSS; in the assay on MDA-MB-231 [2] (shRNA: shPPFIA1_1), 14.9 DSS; in the assay on MDA-MB-231 [2] (shRNA: shScramble), 8.1 DSS.

`Cn1c(CCCC(=O)O)nc2cc(N(CCCl)CCCl)ccc21` [Bendamustine]: the drug sensitivity score with MDA-MB-231 [1] (shRNA: shPPFIA1_1), in the assay with MDA-MB-231 [1] (shRNA: shScramble), with MDA-MB-231 [2] (shRNA: shPPFIA1_1) and with MDA-MB-231 [2] (shRNA: shScramble) was 0 DSS each time.

As to `N#CC(c1ccnc(OCc2ccc(CN3CCOCC3)cc2)n1)c1nc2ccccc2s1` (stereo unspecified) [Bentamapimod], the drug sensitivity score was found to be 1.6 DSS in the assay on MDA-MB-231 [1] (shRNA: shPPFIA1_1), 3.7 DSS in the assay with MDA-MB-231 [1] (shRNA: shScramble), 0 DSS in the assay on MDA-MB-231 [2] (shRNA: shPPFIA1_1) and 0 DSS in the assay with MDA-MB-231 [2] (shRNA: shScramble).

As to `C=C(c1ccc(C(=O)O)cc1)c1cc2c(cc1C)C(C)(C)CCC2(C)C` [Bexarotene], the drug sensitivity score with MDA-MB-231 [1] (shRNA: shPPFIA1_1), in the assay with MDA-MB-231 [1] (shRNA: shScramble), with MDA-MB-231 [2] (shRNA: shPPFIA1_1) and with MDA-MB-231 [2] (shRNA: shScramble) was 0 DSS throughout.

Take `CC(O)(CS(=O)(=O)c1ccc(F)cc1)C(=O)Nc1ccc(C#N)c(C(F)(F)F)c1` (stereo unspecified) [Bicalutamide]: the drug sensitivity score worked out at 0 DSS with MDA-MB-231 [1] (shRNA: shPPFIA1_1), 0.2 DSS in the assay with MDA-MB-231 [1] (shRNA: shScramble), 0 DSS in the assay with MDA-MB-231 [2] (shRNA: shPPFIA1_1) and 0 DSS with MDA-MB-231 [2] (shRNA: shScramble).

In the case of `CCNC(=O)CCC/C=C\C[C@@H]1[C@@H](/C=C/[C@@H](O)CCc2ccccc2)[C@H](O)C[C@@H]1O` [Bimatoprost], the drug sensitivity score in the assay with MDA-MB-231 [1] (shRNA: shPPFIA1_1), in the assay with MDA-MB-231 [1] (shRNA: shScramble), in the assay on MDA-MB-231 [2] (shRNA: shPPFIA1_1) and in the assay with MDA-MB-231 [2] (shRNA: shScramble) was 0 DSS in each case.

`Cn1cnc2c(F)c(Nc3ccc(Br)cc3F)c(C(=O)NOCCO)cc21` [Binimetinib]: the drug sensitivity score was 0 DSS in the assay with MDA-MB-231 [1] (shRNA: shPPFIA1_1), 2.7 DSS in the assay with MDA-MB-231 [1] (shRNA: shScramble), 0 DSS in the assay on MDA-MB-231 [2] (shRNA: shPPFIA1_1) and 2.2 DSS in the assay with MDA-MB-231 [2] (shRNA: shScramble).

`CC[C@H](NC(=O)[C@H](C)NC)C(=O)N1C[C@@H](O)C[C@H]1Cc1c(-c2[nH]c3cc(F)ccc3c2C[C@@H]2C[C@H](O)CN2C(=O)[C@H](CC)NC(=O)[C@H](C)NC)[nH]c2cc(F)ccc12` [Birinapant]: the drug sensitivity score worked out at 20.3 DSS with MDA-MB-231 [1] (shRNA: shPPFIA1_1), 13.2 DSS with MDA-MB-231 [1] (shRNA: shScramble), 31.3 DSS in the assay on MDA-MB-231 [2] (shRNA: shPPFIA1_1) and 22.4 DSS in the assay with MDA-MB-231 [2] (shRNA: shScramble).

With `Cc1c(N)nc([C@H](CC(N)=O)NC[C@H](N)C(N)=O)nc1C(=O)N[C@H](C(=O)N[C@H](C)[C@@H](O)[C@H](C)C(=O)N[C@H](C(=O)NCCc1nc(-c2nc(C(=O)NCCC[S+](C)C)cs2)cs1)[C@@H](C)O)[C@@H](OC1OC(CO)C(O)C(O)C1OC1OC(CO)C(O)C(OC(N)=O)C1O)c1cnc[nH]1` (stereo partly specified) [Bleomycin], the drug sensitivity score in the assay on MDA-MB-231 [1] (shRNA: shPPFIA1_1) was 0 DSS; in the assay on MDA-MB-231 [1] (shRNA: shScramble) it was 3.5 DSS; in the assay with MDA-MB-231 [2] (shRNA: shPPFIA1_1), 0.1 DSS; in the assay with MDA-MB-231 [2] (shRNA: shScramble) it was 0 DSS.
